Key:
[1] = system: RSV type B; assay: Inhibition of reproduction of RSV type B; type: cell-based; conditions: human respiratory syncytial virus
Method: The antiviral activity against the respiratory syncytial virus was assessed in a series of 3-fold dilutions of test compounds, starting from ½CC50, which were added to HEp-2 cell culture, at a double concentration, 100 μL per well, followed by addition of 100 μL of the virus in a series of 10-fold dilutions. Cells were incubated at 37 °C and 5% CO2 for 1 h. Then, the virus was washed out, and the compounds were again added at a single concentration and incubated at 37 °C and 5% CO2 for 6 days. For the enzyme-linked immunosorbent assay (ELISA), cell culture was fixed with cold 80% acetone at −20 °C for 15 min, and then washed with phosphate buffered saline containing 0.05% Tween 20. Next, a solution of primary mouse anti-RSV F protein antibodies was added to the culture and incubated at room temperature under continuous stirring for 2 h. Then, cells were again washed with buffer, secondary anti-mouse antibodies were added, and the cells were incubated under continuous stirring for 2 h. […] After 5 min, the reaction was stopped with 0.1 M sulfuric acid, and optical density of the solution was measured at a wavelength of 450 nm. Wells with absorbance values two fold or greater than the cell control were considered to be […]. The virus titer was calculated using the Reed and Muench method. […]

[2] = system: RSV A strain A2; assay: Antiviral activity against RSV A strain A2 in HEp-2 cells (ELISA virus titer); type: cell-based, respiratory syncytial virus
[3] = Cytotoxicity on non-infected HEp-2 cells, MTT assay; type: cell-based; conditions: human, non-infected HEp-2 cells, CC50 (50% cytotoxic concentration), MTT, 24 h
[4] = system: RSV A2 virus; assay: Time-of-addition assay; type: cell-based, respiratory syncytial virus; conditions: 300 μg/mL, RSV A2, titer by ELISA
Method: Compounds 14e and 14b at a concentration of 300 μg/mL were added at different time intervals before, after, or during virus inoculation (Figure 2 and Figure 3). The time of compound addition was counted off from Point 0, i.e., the moment of virus entry into the cell. RSV A2 virus was added to cells at a time conventionally designated as […]; then, cells were kept at a temperature of 40 °C for 1 h. Next, at Point 0, unbound virus was washed off, fresh medium containing compounds at the same concentration was added, and the cells were transferred to a thermostat at 37 °C where they were incubated for 25 h. After this, medium collected from each well was used to make a series of ten-fold dilutions with fresh cell culture. The cells were incubated for 6 days. The viral titer was measured by ELISA.
Compounds were added at different time points before, after, or simultaneously with the introduction of the virus. The time of addition of the compounds was counted from Point 0, i.e., the time of entry of the virus into the cell. During the period (−1)–0, the cells together with the virus were incubated at 40 °C. All other experiments were carried out at 37 °C. RSV virus A […] was added to the cells at a time that was conventionally designated as […], after which the cells were kept for an hour at a temperature of 40 °C. Then, at Point 0, the virus was unbound. […]

CC1(C)[C@H]2CC=C(CCCOc3ccc4c(-c5ccccc5)cc(=O)oc4c3)[C@@H]1C2 [Compound 14e, 7-(3-((1R,5S)-6,6-Dimethylbicyclo[3.1.1]hept-2-en-2-yl)propoxy)-4-phenyl-2H-chromen-2-one]
EC50 [1]: 3 ± 0.2 µM | antiviral activity against RSV A (in words) ([2]; RSV A, HEp-2 cells): inhibiting virus replication at low micromolar concentrations | IC50 ([2]; human respiratory syncytial virus, HEp-2, RSV A, from Table 1 values, read-out: pIC50 (-lg[IC50]) (converted)): 7.59 µM | EC50 ([2]; human respiratory syncytial virus, HEp-2, read-out: EC50 (50% effective concentration)): 7.5 ± 0.4 µM | CC50 at 24 h [3]: 1440 ± 85.1 µM | effect on viral titer depending on time of addition (in words) [4]: reduced the viral titer upon addition at all time periods through 6 h after infection

Reference: article PMC10054240, “New Inhibitors of Respiratory Syncytial Virus (RSV) Replication Based on Monoterpene-Substituted Arylcoumarins” (Molecules, 2023)
